# Results taken from patent US20250235456A1, “METHODS OF USE FOR AZA-QUINAZOLINE COMPOUNDS” (Iambic Therapeutics, Inc., priority 2024, published 2025).
# Experiments:
# Assay type in all cases: biochemical
# CDK6/Cyclin D3 = CDK6/Cyclin D3 (Homo sapiens (Human), UniProt Q00534); assay: CDK6/Cyclin D3 ADP-Glo Kinase Assay; settings: read-out: CDK6/CyclinD3 IC50
# In short: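 Commercial CDK6/Cyclin D3 pre-incubated with inhibitor 30 min at room temperature, then reaction started with ATP/substrate and run 90 min at room temperature. ADP formed measured by ADP-Glo luminescence; IC50 from fractional velocity vs inhibitor concentration fit to a 4-parameter equation.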
# [1] = molecular target: CDK2/Cyclin E1 full length (Homo sapiens (Human), UniProt P24941); assay: CDK2/Cyclin E1 Full length ADP-Glo Kinase Assay; settings: read-out: CDK2/CyclinE1 IC50
# Protocol: CDK2/Cyclin E1 Full length ADP-Glo Kinase Assay
# The purpose of CDK2/Cyclin El assay is to evaluate the inhibition (% inhibition and IC50 values) of small molecule inhibitors by using a Luminescent based ADP-Glo assay. CDK2/Cyclin El full length catalyzes the production of ADP from ATP. ADP-Glo assay monitors ADP producing biochemical reactions. ADP-Glo is performed in 2 steps upon completion of kinase reaction: a combined termination of kinase reaction and depletion of remaining ATP in the first step, and conversion of generated ADP to ATP and the newly produced ATP to light output using luciferase/luciferin reaction in the second step. The luminescent signal generated is proportional to the ADP concentration produced and is correlated with the kinase activity. CDK2/Cyclin E1 was purchased from Eurofins (Cat 14-475M). […] The assay was initiated with the addition of ATP-containing substrate solution, following a 30-minute pre-incubation of enzyme and inhibitor at room temperature in the reaction mixture. The reaction was stopped after 90 minutes at room temperature by the addition of 10 μL of ADP-GLO Reagent. After a 90 minute incubation, 20 uL of Kinase Detection Reagent was added. Samples were incubated for 40 minutes, after which plate well luminescence was measured on a Envision microplate reader. The IC50 determinations were made from a plot of the fractional velocity as a function of inhibitor concentration fit to the 4 parameters IC50 equation.
# CDK1/Cyclin B1 = CDK1/Cyclin B1 (Homo sapiens (Human), UniProt P06493); assay: CDK1/Cyclin B1 ADP-Glo Kinase Assay
# Sequence of CDK1/Cyclin B1 (P06493 whole entry): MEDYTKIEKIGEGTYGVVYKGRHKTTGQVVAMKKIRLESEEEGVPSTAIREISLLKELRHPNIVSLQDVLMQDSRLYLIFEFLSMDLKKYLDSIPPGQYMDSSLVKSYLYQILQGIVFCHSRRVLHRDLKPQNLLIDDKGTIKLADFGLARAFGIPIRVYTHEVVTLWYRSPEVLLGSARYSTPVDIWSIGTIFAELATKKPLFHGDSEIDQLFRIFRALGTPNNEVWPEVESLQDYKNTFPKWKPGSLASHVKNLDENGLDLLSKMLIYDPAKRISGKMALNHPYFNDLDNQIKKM
# Sequence of CDK1/Cyclin B1 (P14635 whole entry partner): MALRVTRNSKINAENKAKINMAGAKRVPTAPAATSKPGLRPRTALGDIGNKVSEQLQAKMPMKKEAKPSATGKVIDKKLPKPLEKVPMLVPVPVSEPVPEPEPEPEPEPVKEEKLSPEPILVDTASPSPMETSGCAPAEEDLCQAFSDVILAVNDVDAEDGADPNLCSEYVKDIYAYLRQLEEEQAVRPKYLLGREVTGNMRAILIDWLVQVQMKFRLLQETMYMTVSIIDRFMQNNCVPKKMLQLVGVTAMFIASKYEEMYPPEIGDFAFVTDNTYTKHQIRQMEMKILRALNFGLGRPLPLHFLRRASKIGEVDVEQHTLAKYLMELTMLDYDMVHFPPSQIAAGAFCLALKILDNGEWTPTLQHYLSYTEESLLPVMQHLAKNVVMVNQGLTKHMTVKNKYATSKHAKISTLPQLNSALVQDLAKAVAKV
# In short: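 Purchased CDK1/Cyclin B1 was pre-incubated 30 min with inhibitor at room temperature, then reacted 90 min at room temperature after adding ATP-containing substrate. ADP formed was read by two-step ADP-Glo luminescence. IC50 came from a 4-parameter fit of fractional velocity versus inhibitor concentration.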
# CDK4/Cyclin D1 = CDK4/Cyclin D1 (Homo sapiens (Human), UniProt P11802); assay: CDK4/Cyclin D1 CHEF Assay; settings: AQT; read-out: CDK4/CyclinD1 AQT IC50
# Sequence of CDK4/Cyclin D1 (P11802 whole entry, species assumed): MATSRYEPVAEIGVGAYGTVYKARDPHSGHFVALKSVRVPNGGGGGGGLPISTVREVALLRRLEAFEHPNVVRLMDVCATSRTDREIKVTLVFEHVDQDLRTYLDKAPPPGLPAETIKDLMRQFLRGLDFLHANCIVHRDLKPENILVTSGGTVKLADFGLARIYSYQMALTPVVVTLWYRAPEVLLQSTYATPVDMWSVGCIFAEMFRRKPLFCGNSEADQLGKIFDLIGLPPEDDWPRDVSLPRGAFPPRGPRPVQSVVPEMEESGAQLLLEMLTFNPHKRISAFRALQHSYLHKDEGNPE
# Sequence of CDK4/Cyclin D1 (P24385 whole entry partner, species assumed): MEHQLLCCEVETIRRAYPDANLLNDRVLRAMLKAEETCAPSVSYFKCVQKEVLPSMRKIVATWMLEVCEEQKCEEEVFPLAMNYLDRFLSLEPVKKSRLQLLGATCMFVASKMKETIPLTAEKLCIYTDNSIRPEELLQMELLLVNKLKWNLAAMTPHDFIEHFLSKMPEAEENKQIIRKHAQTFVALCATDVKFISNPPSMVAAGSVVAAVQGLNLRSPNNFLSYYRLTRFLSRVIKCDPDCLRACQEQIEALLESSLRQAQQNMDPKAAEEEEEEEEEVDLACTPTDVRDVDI
# Excerpt: CDK4/Cyclin D1 CHEF Assay
# The purpose of CDK4/Cyclin Dl assay is to evaluate the inhibition (% inhibition and IC50 values) of small molecule inhibitors by using a Chelation-Enhance Fluorescence (CHEF) assay. In a CHEF assay, phosphorylation of a peptide substrate results in proportional increase in fluorescence. CHEF kinase assay use peptide substrates containing a synthetic alpha-amino acid with a side chain bearing an 8-hydroxyquinoline derivative (sulfonamido-oxide, Sox). Upon phosphorylation of a nearby serine, threonine or tyrosine and in the presence of Mg(II), the spectral properties of the Sox residue are altered, emitting 485 nm wavelength light when excited with a 360 nm wavelength light source. CDK4/Cyclin D1 catalyzes the phosphoryl transfer to the SOX-labeled substrate peptide AQT0258 from Assayquant Technologies. […] The reaction was initiated with the addition of substrate solution, following a 30-minute pre-incubation of enzyme and inhibitor at 22° C. in the reaction mix. Reactions were allowed to proceed for 3 hrs at 22° C., followed by fluorescence read of the reaction. The IC50 determinations were made from a plot of the fractional velocity as a function of inhibitor concentration fit to the 4 parameters IC50 equation.
# Sequence of CDK6/Cyclin D3 (Q00534 whole entry): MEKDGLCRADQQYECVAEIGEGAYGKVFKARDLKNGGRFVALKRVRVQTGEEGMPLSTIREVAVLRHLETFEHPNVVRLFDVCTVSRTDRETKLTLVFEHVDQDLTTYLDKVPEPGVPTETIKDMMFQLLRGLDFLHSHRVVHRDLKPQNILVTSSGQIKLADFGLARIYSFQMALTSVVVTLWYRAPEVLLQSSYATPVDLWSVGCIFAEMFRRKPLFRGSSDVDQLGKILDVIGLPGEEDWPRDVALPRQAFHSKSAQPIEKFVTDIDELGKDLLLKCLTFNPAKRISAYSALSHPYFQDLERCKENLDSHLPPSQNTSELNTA
# Sequence of CDK6/Cyclin D3 (P30281 whole entry partner): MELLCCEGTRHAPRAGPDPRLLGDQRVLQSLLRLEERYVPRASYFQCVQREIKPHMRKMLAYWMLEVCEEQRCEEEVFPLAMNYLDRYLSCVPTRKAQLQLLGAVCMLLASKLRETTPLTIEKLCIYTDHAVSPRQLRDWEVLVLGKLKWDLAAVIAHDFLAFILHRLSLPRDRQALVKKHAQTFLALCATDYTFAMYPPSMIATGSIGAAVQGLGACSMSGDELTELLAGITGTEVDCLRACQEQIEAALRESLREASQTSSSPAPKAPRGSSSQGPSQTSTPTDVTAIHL
IC50 (CDK6/Cyclin D3) [µM],IC50 [1] [µM],IC50 (CDK1/Cyclin B1) [µM],IC50 (CDK4/Cyclin D1) [µM],Structure (SMILES)
0.5 to 2,< 0.2,> 2,< 0.2,"Cc1cc2cnc(NC3CCN(S(C)(=O)=O)CC3)nc2c(N2CC3(C2)CN(C2CC2)C3)n1 [Compound 42, 8-(6-cyclopropyl-2,6-diazaspiro[3.3]heptan-2-yl)-6-methyl-N-(1-(methylsulfonyl)piperidin-4-yl)pyrido[3,4-d]pyrimidin-2-amine]"
< 0.2,–,< 0.2,< 0.2,"Cc1cc2cnc(NC3CCN(S(=O)(=O)C4CC4)CC3)nc2c(N2CC(F)(F)C3(CN(C)C3)C2)n1 [Compound 102, N-(1-(cyclopropylsulfonyl)piperidin-4-yl)-8-(8,8-difluoro-2-methyl-2,6-diazaspiro[3.4]octan-6-yl)-6-methylpyrido[3,4-d]pyrimidin-2-amine]"
< 0.2,–,> 2,< 0.2,"Cc1cc2cnc(NC3CCN(S(C)(=O)=O)CC3)nc2c(N2CCC3(C2)CC(F)(F)C3)n1 [Compound 53, 8-(2,2-difluoro-6-azaspiro[3.4]octan-6-yl)-6-methyl-N-(1-(methylsulfonyl)piperidin-4-yl)pyrido[3,4-d]pyrimidin-2-amine]"
< 0.2,–,< 0.2,< 0.2,"Cc1cc2cnc(NC3CCN(S(=O)(=O)C4CC4)CC3)nc2c(N2CC(F)(F)C3(CNC3)C2)n1 [Compound 62, N-(1-(cyclopropylsulfonyl)piperidin-4-yl)-8-(8,8-difluoro-2,6-diazaspiro[3.4]octan-6-yl)-6-methylpyrido[3,4-d]pyrimidin-2-amine]"
< 0.2,–,< 0.2,< 0.2,"Cc1cc2cnc(NC3CCN(S(C)(=O)=O)CC3)nc2c(N2CCC3(CC3)C2)n1 [Compound 54, 6-methyl-N-(1-(methylsulfonyl)piperidin-4-yl)-8-(5-azaspiro[2.4]heptan-5-yl)pyrido[3,4-d]pyrimidin-2-amine]"
< 0.2,–,< 0.2,< 0.2,"Cc1cc2cnc(NC3CCN(S(C)(=O)=O)CC3)nc2c(N2CCC3(CCC3(F)F)C2)n1 (stereo not shown) [Compound 52, 8-(1,1-difluoro-6-azaspiro[3.4]octan-6-yl)-6-methyl-N-(1-(methylsulfonyl)piperidin-4-yl)pyrido[3,4-d]pyrimidin-2-amine]"
< 0.2,–,0.2 to 0.5,< 0.2,"Cc1cc2cnc(NC3CCN(S(C)(=O)=O)CC3)nc2c(N2CC3(CCC(=O)N3)C2)n1 [Compound 77, 2-(6-methyl-2-((1-(methylsulfonyl)piperidin-4-yl)amino)pyrido[3,4-d]pyrimidin-8-yl)-2,5-diazaspiro[3.4] octan-6-one]"
< 0.2,–,< 0.2,< 0.2,"Cc1cc2cnc(NC3CCN(S(C)(=O)=O)CC3)nc2c(N2CC(F)(F)C3(CNC3)C2)n1 [Compound 92, 8-(8,8-difluoro-2,6-diazaspiro[3.4]octan-6-yl)-6-methyl-N-(1-(methylsulfonyl)piperidin-4-yl)pyrido[3,4-d]pyrimidin-2-amine]"

# More lines, now with the values behind:
Structure (SMILES),IC50 (CDK6/Cyclin D3) [µM],IC50 [1] [µM],IC50 (CDK1/Cyclin B1) [µM],IC50 (CDK4/Cyclin D1) [µM]
"Cc1cc2cnc(NC3CCN(S(=O)(=O)C4(C)CC4)CC3)nc2c(C2CC(C)(O)C2)n1 (stereo not shown) [Compound 63, 1-methyl-3-(6-methyl-2-((1-((1-methylcyclopropyl)sulfonyl)piperidin-4-yl)amino)pyrido[3,4-d]pyrimidin-8-yl)cyclobutan-1-ol]",> 2,0.2 to 0.5,> 2,–
"Cc1cc2cnc(NC3CCN(S(C)(=O)=O)CC3)nc2c(N2CC3(CCC(=O)NC3)C2)n1 [Compound 82, 2-(6-methyl-2-((1-(methylsulfonyl)piperidin-4-yl)amino)pyrido[3,4-d]pyrimidin-8-yl)-2,6-diazaspiro[3.5] nonan-7-one]",0.2 to 0.5,–,0.2 to 0.5,0.2 to 0.5
"Cc1cc2cnc(Nc3cnn(C4CC5(C4)CN(C)C5)c3)nc2c(N2CC3(C2)CN(S(C)(=O)=O)C3)n1 [Compound 26, 6-methyl-N-(1-(2-methyl-2-azaspiro[3.3]heptan-6-yl)-1H-pyrazol-4-yl)-8-(6-(methylsulfonyl)-2,6-diazaspiro[3.3]heptan-2-yl) pyrido[3,4-d]pyrimidin-2-amine]",–,0.2 to 0.5,> 2,0.2 to 0.5
"Cc1cc2cnc(NC3CCN(S(=O)(=O)C4CC4)CC3)nc2c(N2CC3(CCNC3)C2)n1 [Compound 25, N-(1-(cyclopropylsulfonyl)piperidin-4-yl)-6-methyl-8-(2,6-diazaspiro[3.4]octan-2-yl) pyrido[3,4-d]pyrimidin-2-amine]",< 0.2,–,0.2 to 0.5,< 0.2
O=S(=O)(CC1CCC1)N1CCC(Nc2ncc3cc(C(F)F)nc(N4CC5(CCNC5)C4)c3n2)CC1 [Compound 55],< 0.2,–,< 0.2,< 0.2
"COC1CC2(C1)CN(c1nc(C3CC3)cc3cnc(NC4CCN(S(C)(=O)=O)CC4)nc13)C2 [Compound 75, 6-cyclopropyl-8-(6-methoxy-2-azaspiro[3.3]heptan-2-yl)-N-(1-(methylsulfonyl)piperidin-4-yl)pyrido[3,4-d]pyrimidin-2-amine]",< 0.2,–,> 2,< 0.2
"COC1CC2(C1)CN(c1nc(C)cc3cnc(NC4CCN(S(=O)(=O)C5CC5)CC4)nc13)C2 [Compound 71, N-(1-(cyclopropylsulfonyl)piperidin-4-yl)-8-(6-methoxy-2-azaspiro[3.3]heptan-2-yl)-6-methylpyrido[3,4-d]pyrimidin-2-amine]",< 0.2,–,0.2 to 0.5,< 0.2
"Cc1cc2cnc(NC3CCN(S(C)(=O)=O)CC3)nc2c(N2CC3(CNCC3F)C2)n1 (stereo not shown) [Compound 98, 8-(8-fluoro-2,6-diazaspiro[3.4]octan-2-yl)-6-methyl-N-(1-(methylsulfonyl)piperidin-4-yl)pyrido[3,4-d]pyrimidin-2-amine]",0.2 to 0.5,–,0.2 to 0.5,< 0.2
"Cc1cc2cnc(Nc3ccc(CS(C)(=O)=O)cc3)nc2c(N2CC(O)(C3CC3)C2)n1 [Compound 83, 3-cyclopropyl-1-(6-methyl-2-((4-((methylsulfonyl)methyl)phenyl)amino)pyrido[3,4-d]pyrimidin-8-yl)azetidin-3-ol]",< 0.2,–,0.2 to 0.5,< 0.2
"Cc1cc2cnc(Nc3ccc4c(c3)CN(C3CN(S(C)(=O)=O)C3)C4)nc2c(N2CC3(CN(C)C3)C2)n1 [Compound 29, 6-methyl-8-(6-methyl-2,6-diazaspiro[3.3]heptan-2-yl)-N-(2-(1-(methylsulfonyl)azetidin-3-yl)isoindolin-5-yl)pyrido[3,4-d]pyrimidin-2-amine]",–,0.2 to 0.5,> 2,< 0.2
"Cc1cc2cnc(NC3CCN(S(=O)(=O)C4CC4)CC3)nc2c(N2CC(O)(C3CC3)C2)n1 [Compound 56, 3-cyclopropyl-1-(2-((1-(cyclopropylsulfonyl)piperidin-4-yl)amino)-6-methylpyrido[3,4-d]pyrimidin-8-yl)azetidin-3-ol]",< 0.2,–,< 0.2,< 0.2
"Cc1cc2cnc(Nc3cnn(C4CC5(C4)CN(C)C5)c3)nc2c(N2CCC3(C2)CC3(F)F)n1 (stereo not shown) [Compound 33, 8-(1,1-difluoro-5-azaspiro[2.4]heptan-5-yl)-6-methyl-N-(1-(2-methyl-2-azaspiro[3.3]heptan-6-yl)-1H-pyrazol-4-yl)pyrido[3,4-d]pyrimidin-2-amine]",< 0.2,0.2 to 0.5,–,< 0.2
"Cc1cc2cnc(NC3CCN(S(=O)(=O)c4cnn(C)c4)CC3)nc2c(N2CC3(CCNCC3(F)F)C2)n1 [Compound 87, 8-(5,5-difluoro-2,7-diazaspiro[3.5]nonan-2-yl)-6-methyl-N-(1-((1-methyl-1H-pyrazol-4-yl)sulfonyl)piperidin-4-yl)pyrido[3,4-d]pyrimidin-2-amine]",< 0.2,–,< 0.2,< 0.2
